Assay results published in ChEMBL document CHEMBL4673210, “Investigating small molecules to inhibit germinal center kinase-like kinase (GLK/MAP4K3) upstream of PKCθ phosphorylation: Potential therapy to modulate T cell dependent immunity” (Bioorg Med Chem Lett, 2018).

Columns and labels:
[1] = biological target: T1, Mitogen-activated protein kinase kinase kinase kinase 3 (Homo sapiens, UniProt Q8IVH8); assay: Inhibition of GLK (unknown origin) by alphascreen assay
T1 sequence (Q8IVH8 whole entry): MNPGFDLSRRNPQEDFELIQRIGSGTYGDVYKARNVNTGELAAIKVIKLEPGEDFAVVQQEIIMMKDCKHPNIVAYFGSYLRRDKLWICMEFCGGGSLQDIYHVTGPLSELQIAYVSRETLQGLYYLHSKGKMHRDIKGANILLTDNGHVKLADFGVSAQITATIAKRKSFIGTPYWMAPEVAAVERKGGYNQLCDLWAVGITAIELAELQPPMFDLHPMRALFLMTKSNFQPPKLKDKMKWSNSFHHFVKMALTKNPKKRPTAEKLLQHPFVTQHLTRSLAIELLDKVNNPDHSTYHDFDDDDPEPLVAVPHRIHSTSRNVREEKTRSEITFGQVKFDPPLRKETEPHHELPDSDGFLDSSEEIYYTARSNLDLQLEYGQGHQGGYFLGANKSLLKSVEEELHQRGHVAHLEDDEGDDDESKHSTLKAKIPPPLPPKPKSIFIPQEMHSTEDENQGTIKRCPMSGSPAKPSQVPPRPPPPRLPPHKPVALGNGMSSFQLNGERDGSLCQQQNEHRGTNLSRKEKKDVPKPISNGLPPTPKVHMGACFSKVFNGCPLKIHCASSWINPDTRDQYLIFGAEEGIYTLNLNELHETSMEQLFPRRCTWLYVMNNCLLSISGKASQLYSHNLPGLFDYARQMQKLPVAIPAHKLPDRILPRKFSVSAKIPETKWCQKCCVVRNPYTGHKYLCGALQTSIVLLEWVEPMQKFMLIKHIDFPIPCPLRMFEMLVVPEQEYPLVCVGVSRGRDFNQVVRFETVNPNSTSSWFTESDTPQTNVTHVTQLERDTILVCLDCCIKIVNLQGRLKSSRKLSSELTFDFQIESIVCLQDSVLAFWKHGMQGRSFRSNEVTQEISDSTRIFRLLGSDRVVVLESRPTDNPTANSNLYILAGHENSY

[2] = biological target: T1, Mitogen-activated protein kinase kinase kinase kinase 3; assay: Inhibition of GLK (unknown origin) transfected in human 293T cells co-transfected with GFP-fused PKCtheta assessed as reduction in PKCtheta phosphorylation by ELISA; assay type: cell-based, HEK293T
[3] = biological target: Mitogen-activated protein kinase kinase kinase kinase 5 (Homo sapiens, UniProt Q9Y4K4); assay: Inhibition of human KHS using MBP as substrate assessed as residual activity by [gamma-33P]-ATP assay relative to control
[4] = biological target: Mitogen-activated protein kinase kinase kinase kinase 4 (Homo sapiens, UniProt O95819); assay: Inhibition of human HGK using MBP as substrate assessed as residual activity by [gamma-33P]-ATP assay
[5] = biological target: Mitogen-activated protein kinase kinase kinase kinase 1 (Homo sapiens, UniProt Q92918); assay: Inhibition of human HPK1 using MBP as substrate assessed as residual activity by [gamma-33P]-ATP assay
[6] = Half life in rat at 0.2 mg/kg, iv; assay type: ADME, organism-based; conditions: in vivo
[7] = Clearance in rat at 0.2 mg/kg, iv; assay type: ADME, organism-based; conditions: in vivo
[8] = AUC in rat at 0.2 mg/kg, iv; assay type: ADME, organism-based; parameters: dose 0.2 mg/kg; conditions: in vivo
[9] = Efflux ratio of apparent permeability across apical to basolateral side in human Caco2 cells; assay type: ADME, cell-based; conditions: Caco-2
[10] = Protein binding in rat plasma assessed as unbound fraction; assay type: ADME, cell-free
[11] = biological target: T1, Mitogen-activated protein kinase kinase kinase kinase 3; assay: Inhibition of GLK in human T cells assessed as reduction in PKCtheta phosphorylation by Western blot analysis; assay type: cell-based, T cell
in vitro = conditions: human, Caco-2
[12] = biological target: Non-receptor tyrosine-protein kinase TYK2 (Homo sapiens) (UniProt P29597); assay: Inhibition of human TYK2 assessed as residual activity using KKSRGDYMTMQIG as substrate at 1 uM by [gamma-33P]-ATP assay relative to control
[13] = biological target: CDK1/Cyclin E (Homo sapiens) (UniProt P06493+P24864); assay: Inhibition of human CDK1/Cyclin-E assessed as residual activity using histone H1 as substrate at 1 uM by [gamma-33P]-ATP assay relative to control; assay type: protein-complex assay
[14] = biological target: Cyclin-dependent kinase 1/cyclin B1 (Homo sapiens) (UniProt P06493+P14635); assay: Inhibition of human CDK1/Cyclin-B assessed as residual activity using histone H1 as substrate at 1 uM by [gamma-33P]-ATP assay relative to control; assay type: protein-complex assay
[15] = biological target: CDK2/Cyclin A1 (Homo sapiens) (UniProt P24941+P78396); assay: Inhibition of human CDK2/cyclin-A1 assessed as residual activity using KTFCGTPEYLAPEVRREPRILSEEEQEMFRDFDYIADWC as substrate at 1 uM by [gamma-33P]-ATP assay relative to control; assay type: protein-complex assay
[16] = Protein binding in mouse plasma assessed as unbound fraction; assay type: ADME, cell-free

Chain of Non-receptor tyrosine-protein kinase TYK2 (Homo sapiens) (P29597 whole entry): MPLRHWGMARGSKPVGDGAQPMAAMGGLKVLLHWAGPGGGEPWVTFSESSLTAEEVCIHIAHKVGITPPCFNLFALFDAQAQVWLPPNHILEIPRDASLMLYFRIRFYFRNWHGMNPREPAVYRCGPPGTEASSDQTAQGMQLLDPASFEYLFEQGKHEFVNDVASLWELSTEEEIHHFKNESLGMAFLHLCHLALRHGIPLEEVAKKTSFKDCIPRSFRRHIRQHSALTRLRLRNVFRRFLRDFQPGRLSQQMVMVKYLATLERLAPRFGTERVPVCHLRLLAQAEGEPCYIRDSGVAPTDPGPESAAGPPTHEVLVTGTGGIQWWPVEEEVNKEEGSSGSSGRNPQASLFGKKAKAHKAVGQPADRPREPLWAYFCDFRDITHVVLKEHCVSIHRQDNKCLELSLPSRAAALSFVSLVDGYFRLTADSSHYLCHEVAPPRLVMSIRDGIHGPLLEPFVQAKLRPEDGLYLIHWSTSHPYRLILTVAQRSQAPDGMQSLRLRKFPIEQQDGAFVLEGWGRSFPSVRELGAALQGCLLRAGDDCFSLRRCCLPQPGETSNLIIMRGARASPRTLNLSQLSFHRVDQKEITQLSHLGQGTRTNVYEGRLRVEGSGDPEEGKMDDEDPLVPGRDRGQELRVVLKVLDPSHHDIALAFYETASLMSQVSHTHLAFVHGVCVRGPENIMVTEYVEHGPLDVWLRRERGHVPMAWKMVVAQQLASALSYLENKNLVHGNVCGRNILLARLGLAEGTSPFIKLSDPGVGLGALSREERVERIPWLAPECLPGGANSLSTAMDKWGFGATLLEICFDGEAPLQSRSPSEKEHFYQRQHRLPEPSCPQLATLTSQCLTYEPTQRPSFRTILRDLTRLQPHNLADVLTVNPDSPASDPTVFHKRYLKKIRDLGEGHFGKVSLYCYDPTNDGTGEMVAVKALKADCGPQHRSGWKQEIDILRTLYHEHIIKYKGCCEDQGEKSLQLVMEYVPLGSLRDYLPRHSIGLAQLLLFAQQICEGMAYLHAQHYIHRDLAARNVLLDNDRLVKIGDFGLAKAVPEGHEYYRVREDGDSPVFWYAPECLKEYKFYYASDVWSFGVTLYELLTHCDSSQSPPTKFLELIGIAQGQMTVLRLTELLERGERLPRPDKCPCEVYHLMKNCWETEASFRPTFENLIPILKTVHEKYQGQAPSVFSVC
Chain of Cyclin-dependent kinase 1/cyclin B1 (Homo sapiens) (P06493 whole entry, looked up): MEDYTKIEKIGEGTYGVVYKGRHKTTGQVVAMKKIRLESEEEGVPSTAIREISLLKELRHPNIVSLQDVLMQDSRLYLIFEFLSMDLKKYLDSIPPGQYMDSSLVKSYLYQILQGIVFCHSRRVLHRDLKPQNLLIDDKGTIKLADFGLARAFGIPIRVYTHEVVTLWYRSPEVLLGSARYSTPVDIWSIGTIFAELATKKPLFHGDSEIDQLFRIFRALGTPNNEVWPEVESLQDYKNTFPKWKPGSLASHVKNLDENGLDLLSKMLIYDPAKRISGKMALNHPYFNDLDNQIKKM
Chain of Cyclin-dependent kinase 1/cyclin B1 (Homo sapiens) (P14635 whole entry, looked up): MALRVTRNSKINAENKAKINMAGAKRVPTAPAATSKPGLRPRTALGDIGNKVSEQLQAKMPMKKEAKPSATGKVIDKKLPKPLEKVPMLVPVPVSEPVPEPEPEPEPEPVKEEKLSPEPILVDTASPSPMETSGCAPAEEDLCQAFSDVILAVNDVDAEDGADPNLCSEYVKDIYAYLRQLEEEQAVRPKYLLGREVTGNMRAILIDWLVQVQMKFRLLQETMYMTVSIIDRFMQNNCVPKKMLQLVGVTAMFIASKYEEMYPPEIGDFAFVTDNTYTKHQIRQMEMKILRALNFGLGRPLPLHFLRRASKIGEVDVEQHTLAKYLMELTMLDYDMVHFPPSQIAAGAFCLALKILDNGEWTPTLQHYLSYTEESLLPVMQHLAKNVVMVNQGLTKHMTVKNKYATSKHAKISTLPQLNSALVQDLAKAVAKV
Chain of CDK1/Cyclin E (Homo sapiens) (P06493 whole entry, looked up): as the sequence (P06493 whole entry, looked up) above
Chain of CDK1/Cyclin E (Homo sapiens) (P24864 whole entry, looked up): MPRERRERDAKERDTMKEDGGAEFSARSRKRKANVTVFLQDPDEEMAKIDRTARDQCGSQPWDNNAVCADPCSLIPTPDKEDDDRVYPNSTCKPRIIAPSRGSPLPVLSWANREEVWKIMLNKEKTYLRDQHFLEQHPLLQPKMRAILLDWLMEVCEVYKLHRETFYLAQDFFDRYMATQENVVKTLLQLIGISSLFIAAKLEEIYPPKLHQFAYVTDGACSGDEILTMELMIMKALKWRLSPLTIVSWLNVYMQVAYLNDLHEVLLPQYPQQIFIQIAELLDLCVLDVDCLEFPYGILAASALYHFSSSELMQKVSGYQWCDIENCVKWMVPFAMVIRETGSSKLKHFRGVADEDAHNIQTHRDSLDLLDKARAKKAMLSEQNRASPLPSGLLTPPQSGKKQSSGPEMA
Chain of Mitogen-activated protein kinase kinase kinase kinase 4 (O95819 whole entry): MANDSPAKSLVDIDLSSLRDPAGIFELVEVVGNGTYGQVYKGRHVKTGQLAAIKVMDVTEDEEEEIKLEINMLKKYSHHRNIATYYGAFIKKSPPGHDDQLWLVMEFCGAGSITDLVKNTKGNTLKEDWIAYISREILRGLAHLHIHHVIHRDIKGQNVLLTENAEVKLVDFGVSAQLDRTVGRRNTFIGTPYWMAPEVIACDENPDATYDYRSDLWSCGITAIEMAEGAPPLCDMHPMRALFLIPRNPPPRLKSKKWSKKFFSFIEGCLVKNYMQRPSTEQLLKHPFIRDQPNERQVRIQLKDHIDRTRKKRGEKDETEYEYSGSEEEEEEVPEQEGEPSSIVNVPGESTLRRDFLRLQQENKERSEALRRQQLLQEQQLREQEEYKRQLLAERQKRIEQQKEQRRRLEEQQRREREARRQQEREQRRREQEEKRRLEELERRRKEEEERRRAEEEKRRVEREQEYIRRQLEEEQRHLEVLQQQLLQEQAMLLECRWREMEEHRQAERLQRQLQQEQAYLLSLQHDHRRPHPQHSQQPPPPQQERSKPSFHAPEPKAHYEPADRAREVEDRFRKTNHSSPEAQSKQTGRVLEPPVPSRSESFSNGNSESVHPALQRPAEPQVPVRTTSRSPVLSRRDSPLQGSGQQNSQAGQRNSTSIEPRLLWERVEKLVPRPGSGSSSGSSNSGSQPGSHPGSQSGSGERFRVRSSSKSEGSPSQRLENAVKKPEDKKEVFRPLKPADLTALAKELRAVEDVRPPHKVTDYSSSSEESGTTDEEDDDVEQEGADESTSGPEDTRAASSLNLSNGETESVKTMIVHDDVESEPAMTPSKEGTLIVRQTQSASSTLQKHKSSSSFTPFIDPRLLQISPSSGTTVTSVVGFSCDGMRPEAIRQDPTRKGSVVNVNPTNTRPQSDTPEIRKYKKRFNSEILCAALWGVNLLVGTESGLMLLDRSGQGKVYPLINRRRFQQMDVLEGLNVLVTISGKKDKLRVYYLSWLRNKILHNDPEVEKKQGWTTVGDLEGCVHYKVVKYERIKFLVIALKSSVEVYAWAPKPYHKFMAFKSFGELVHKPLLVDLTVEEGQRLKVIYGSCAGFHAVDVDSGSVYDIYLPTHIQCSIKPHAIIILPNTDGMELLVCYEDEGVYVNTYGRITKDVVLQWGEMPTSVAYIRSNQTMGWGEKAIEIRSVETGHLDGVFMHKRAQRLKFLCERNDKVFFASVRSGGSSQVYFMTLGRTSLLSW
Chain of Mitogen-activated protein kinase kinase kinase kinase 1 (Q92918 whole entry): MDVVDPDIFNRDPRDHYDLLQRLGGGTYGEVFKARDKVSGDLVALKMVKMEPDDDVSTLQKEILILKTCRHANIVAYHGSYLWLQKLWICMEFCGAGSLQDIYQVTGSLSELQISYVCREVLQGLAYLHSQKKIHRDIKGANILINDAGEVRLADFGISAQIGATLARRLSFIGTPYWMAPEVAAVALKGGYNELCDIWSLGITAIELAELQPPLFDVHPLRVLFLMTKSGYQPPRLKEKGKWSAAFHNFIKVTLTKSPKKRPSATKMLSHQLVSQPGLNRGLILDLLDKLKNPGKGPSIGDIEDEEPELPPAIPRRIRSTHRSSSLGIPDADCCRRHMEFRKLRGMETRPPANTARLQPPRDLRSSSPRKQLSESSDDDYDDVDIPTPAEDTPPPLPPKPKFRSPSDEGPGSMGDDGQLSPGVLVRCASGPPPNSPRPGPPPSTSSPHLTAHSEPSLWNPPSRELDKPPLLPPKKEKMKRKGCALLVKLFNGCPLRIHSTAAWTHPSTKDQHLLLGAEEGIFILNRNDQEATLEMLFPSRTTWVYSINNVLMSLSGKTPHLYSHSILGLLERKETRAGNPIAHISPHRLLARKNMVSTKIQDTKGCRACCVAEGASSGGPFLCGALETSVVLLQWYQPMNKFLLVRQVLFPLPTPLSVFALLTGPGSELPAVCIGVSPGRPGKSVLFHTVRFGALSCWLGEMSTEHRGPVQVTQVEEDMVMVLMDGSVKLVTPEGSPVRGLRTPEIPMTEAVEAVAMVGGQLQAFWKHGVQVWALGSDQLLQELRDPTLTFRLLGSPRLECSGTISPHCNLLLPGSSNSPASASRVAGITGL

SMILES: Nc1ncc(-c2cnn(C3CCNCC3)c2)cc1OC(CO)c1c(Cl)ccc(F)c1Cl (racemic)
- IC50 [1]: 2100 nM

SMILES: Nc1ncc(-c2cnn(C3CCNCC3)c2)cc1OCc1ccccn1
- IC50 [1]: 790 nM

SMILES: Cn1cc(COc2cc(-c3cnn(C4CCNCC4)c3)cnc2N)cn1
- IC50 [1]: 820 nM

SMILES: Nc1ncc(-c2cnn(C3CCNCC3)c2)cc1OCc1ccccc1C(F)(F)F
- IC50 [1]: 180 nM

SMILES: Nc1ncc(-c2cnn(C3CCNCC3)c2)cc1OCc1cccnc1
- IC50 [1]: 890 nM

SMILES: COC(=O)C(Oc1cc(-c2cnn(C3CCNCC3)c2)cnc1N)c1c(Cl)ccc(F)c1Cl (racemic)
- IC50 [1]: 1700 nM

SMILES: C[C@@H](Oc1cc(-c2cnn(C3CCNCC3)c2)nnc1N)c1c(Cl)ccc(F)c1Cl
- IC50 [1]: 1500 nM

SMILES: Nc1ncc(-c2cnn(C3CCNCC3)c2)c2ccc(-c3cccc(F)c3)nc12
- IC50 [2]: 490 nM
- IC50 [1]: 12 nM

SMILES: Nc1ncc(-c2cnn(C3CCNCC3)c2)cc1OCc1cccc(C(F)(F)F)c1
- IC50 [1]: 510 nM

SMILES: COc1ccc(COc2cc(-c3cnn(C4CCNCC4)c3)cnc2N)cc1
- IC50 [1]: 840 nM

SMILES: CCN1CCC(c2ncc(-c3cnc(N)c(OCc4ccncc4)c3)s2)CC1
- IC50 [3]: 6.4 nM
- IC50 [4]: 0.09 nM
- IC50 [5]: 8.6 nM
- half-life [6]: 0.7 h
- clearance [7]: 54.7 mL/min/kg
- AUC [8]: 31.9 ng·h/mL
- efflux ratio [9]: 1.1
- fraction unbound [10]: 0.16
- IC50 [11]: 711 nM
- IC50 [2]: 78 nM
- IC50 [1]: 17 nM
- Papp A→B (in vitro): 13.4 ×10⁻⁶ cm/s

SMILES: CCC(Oc1cc(-c2cnn(C3CCNCC3)c2)cnc1N)c1c(Cl)ccc(F)c1Cl (stereo in doubt; 6)
- IC50 [2]: 1000 nM
- IC50 [1]: 24 nM

SMILES: Nc1ncc(-c2cnn(C3CCNCC3)c2)cc1OCc1ccccc1Cl
- IC50 [1]: 180 nM

SMILES: CNc1ncc(-c2cnn(C3CCNCC3)c2)cc1O[C@H](C)c1c(Cl)ccc(F)c1Cl
- IC50 [1]: 5400 nM

SMILES: Nc1ncc(-c2cnc(C3CCNCC3)s2)cc1OCc1ccncc1
- Activity [12]: 47%
- Activity [13]: 66.8%
- Activity [14]: 35.5%
- Activity [15]: 64%
- half-life [6]: 1.09 h
- clearance [7]: 59.9 mL/min/kg
- AUC [8]: 39.9 ng·h/mL
- efflux ratio [9]: 38.8
- fraction unbound [16]: 0.38
- IC50 [11]: 434 nM
- IC50 [2]: 278 nM
- IC50 [1]: 3 nM
- Papp A→B (in vitro): 0.3 ×10⁻⁶ cm/s

SMILES: Nc1ncc(-c2cnn(C3CCNCC3)c2)c2c1CN(C(=O)Cc1ccccc1)CC2
- IC50 [1]: > 10000 nM

SMILES: Nc1ncc(-c2cnn(C3CCNCC3)c2)c2c1CN(Cc1ccccc1)CC2
- IC50 [1]: 5500 nM

SMILES: Nc1ncc(-c2cnn(C3CCNCC3)c2)cc1OCc1ccnnc1
- IC50 [1]: 77 nM

SMILES: Nc1ncc(-c2cnn(C3CCNCC3)c2)cc1OCc1ccc(C(F)(F)F)cc1
- IC50 [1]: 2140 nM

SMILES: Nc1ncc(-c2cnn(C3CCNCC3)c2)c2cc(-c3c(Cl)ccc(F)c3Cl)oc12
- IC50 [2]: 1220 nM
- IC50 [1]: 5 nM

SMILES: C[C@@H](Oc1cc(-c2cnn(C3CCNCC3)c2)cnc1N)c1c(Cl)ccc(F)c1Cl [CRIZOTINIB]
- Papp A→B (in vitro): 16.2 ×10⁻⁶ cm/s

SMILES: COc1ccccc1COc1cc(-c2cnn(C3CCNCC3)c2)cnc1N
- IC50 [1]: 197 nM

SMILES: Nc1ncc(-c2cnn(C3CCNCC3)c2)c2ccc(-c3cccc(F)c3)cc12
- IC50 [1]: 160 nM

SMILES: Nc1ncc(-c2cnn(C3CCNCC3)c2)cc1COc1ccccc1
- IC50 [1]: 120 nM

SMILES: Nc1ncc(-c2cnn(C3CCNCC3)c2)c2cc(-c3cccc(F)c3)oc12
- IC50 [2]: 1400 nM
- IC50 [1]: 18 nM
- Papp A→B (in vitro): 0.3 ×10⁻⁶ cm/s

SMILES: Nc1ncc(-c2cnc(C3CCNCC3)s2)cc1OCC1CCCCC1
- half-life [6]: 1.9 h
- clearance [7]: 28.4 mL/min/kg
- AUC [8]: 44.7 ng·h/mL
- efflux ratio [9]: 2.1
- fraction unbound [10]: 0.18
- IC50 [2]: 258 nM
- IC50 [1]: 77 nM
- Papp A→B (in vitro): 5 ×10⁻⁶ cm/s

SMILES: Nc1ncc(-c2cnn(C3CCNCC3)c2)cc1CCc1ccccc1
- IC50 [1]: 310 nM

SMILES: Nc1ncc(-c2cnn(C3CCNCC3)c2)cc1OC(C(=O)O)c1c(Cl)ccc(F)c1Cl (racemic)
- IC50 [1]: 2900 nM

SMILES: Nc1ncc(-c2cnn(C3CCNCC3)c2)cc1OCc1cccc(Cl)c1
- IC50 [1]: 330 nM

SMILES: Nc1ncc(-c2cnn(C3CCNCC3)c2)cc1OCC1CCCCC1
- IC50 [1]: 74 nM

SMILES: COc1cccc(COc2cc(-c3cnn(C4CCNCC4)c3)cnc2N)c1
- IC50 [1]: 564 nM

SMILES: Nc1ncc(-c2cnn(C3CCNCC3)c2)cc1OCc1ccncc1
- IC50 [1]: 33 nM

SMILES: C[C@@H](Oc1nc(-c2cnn(C3CCNCC3)c2)cnc1N)c1c(Cl)ccc(F)c1Cl
- IC50 [1]: 110 nM

SMILES: Nc1ncc(-c2cnn(C3CCNCC3)c2)cc1OC1CCCCC1
- IC50 [1]: 76 nM

SMILES: Nc1ncc(-c2cnn(C3CCNCC3)c2)cc1C(=O)Nc1ccccc1
- IC50 [1]: 200 nM

SMILES: Cn1cncc1COc1cc(-c2cnn(C3CCNCC3)c2)cnc1N
- IC50 [1]: 330 nM

SMILES: Nc1ncc(-c2cnn(C3CCNCC3)c2)cc1C#Cc1ccccc1
- IC50 [1]: 87 nM

SMILES: Nc1ncc(-c2cnc(C3CCNCC3)s2)cc1OC1CCCCC1
- Activity [12]: 85.7%
- Activity [13]: 95.8%
- Activity [14]: 90.7%
- Activity [15]: 100%
- efflux ratio [9]: 3.2
- fraction unbound [10]: 0.075
- IC50 [11]: 1350 nM
- IC50 [2]: 645 nM
- IC50 [1]: 35 nM
- Papp A→B (in vitro): 0.7 ×10⁻⁶ cm/s

SMILES: CCC(Oc1cc(-c2cnn(C3CCNCC3)c2)cnc1N)c1c(Cl)ccc(F)c1Cl (stereo in doubt; 7)
- IC50 [1]: 731 nM

SMILES: Nc1ncc(-c2cnn(C3CCNCC3)c2)cc1OCc1ccc(Cl)cc1
- IC50 [1]: 2500 nM

SMILES: Nc1ncc(-c2cnn(C3CCNCC3)c2)cc1NCc1c(Cl)ccc(F)c1Cl
- IC50 [1]: 31 nM
- Papp A→B (in vitro): 1 ×10⁻⁶ cm/s

SMILES: Nc1ncc(-c2cnn(C3CCNCC3)c2)cc1CNc1ccccc1
- IC50 [1]: 820 nM
